# From US9776962B2, “Aromatic compounds with GPR40 agonistic activity” (TAKEDA PHARMACEUTICAL COMPANY LIMITED, priority 2013, dated 2017)
# Biological target: T1, human GPR40 (Homo sapiens, UniProt O14842)
# T1 construct: expressed in transfected cells
# Assay: Evaluation of human GPR40 agonist activity with increase in intracellular Ca2+ concentration as an index (FLIPR)
# Assay type: cell-based
# Conditions: test compound 1 μM; CHO(dhfr−) cells stably expressing human GPR40; 100% = 10 μM compound of Example 153, 0% = DMSO
# Procedure: Plasmid hGPR40/pAKKO-1.11H for mammalian cells expression, wherein cDNA fragment (SEQ ID NO: 1) encoding the full-length human GPR40 was incorporated into an expression vector pAKKO-1.11H (Biochimica et Biophysica Acta vol. 1219 pp. 251-259 (1994)), was transfected into CHO-dhfr(−) cells (ATCC, CRL-9096) by using Lipofectamine 2000 (Invitrogen:11668-019). After transfection, the limiting dilution-culture method was performed to select clone in selection medium (nucleic acid-free α-MEM (Invitrogen:12561-056)) containing 10% dialyzed bovine serum (Invitrogen:26400-044)). The expression level of human GPR40 mRNA was confirmed by TaqMan PCR (Life Technologies), and the intracellular calcium mobilization activity of GPR40 ligand (γ-linolenic acid) was confirmed by FLIPR (Molecular Devices), and a clone of human GPR40 expressing CHO cells was selected.
# Evaluation of Human GPR40 Agonist Activity with Increase in Intracellular Ca^2+ Concentration as an Index
# CHO(dhfr−) cells that stably expressed human GPR40 were suspended in MEMα (Nikken Bio Medical Laboratory) containing 10% dialyzed bovine serum (JR Scientific), 10 mM HEPES (Life Technologies), 100 U/mL penicillin, 100 μg/mL streptomycin (Life Technologies), and plated on a 384 well black/clear cell culture plate at 10,000 cells/well. After culture overnight in a CO2 incubator at 37° C., the culture supernatant was removed, and loading buffer [Ca^2+ probe attached to Calcium Kit II-iCellux (DOJINDO) was dissolved in assay buffer (20 mM HEPES, 0.1% fatty acid-free BSA (Sigma-Aldrich), 2.5 mM probenecid (DOJINDO)-containing HESS (Life Technologies))] was added at 30 μL/well. After leaving for 1 hr at room temperature under light shielding, assay buffer containing the test compound at a final concentration of 1 μM was added at 10 μL/well in FLIPR Tetra (Molecular Devices), and the fluorescence amount was successively measured. Human GPR40 agonist activity calculated using an increase in the intracellular Ca^2+ concentration as an index, wherein the activity of 10 μM of the compound of Example 153 was 100%, and the activity when DMSO was added instead of the test compound was 0%.
# T1 sequence (O14842 whole entry): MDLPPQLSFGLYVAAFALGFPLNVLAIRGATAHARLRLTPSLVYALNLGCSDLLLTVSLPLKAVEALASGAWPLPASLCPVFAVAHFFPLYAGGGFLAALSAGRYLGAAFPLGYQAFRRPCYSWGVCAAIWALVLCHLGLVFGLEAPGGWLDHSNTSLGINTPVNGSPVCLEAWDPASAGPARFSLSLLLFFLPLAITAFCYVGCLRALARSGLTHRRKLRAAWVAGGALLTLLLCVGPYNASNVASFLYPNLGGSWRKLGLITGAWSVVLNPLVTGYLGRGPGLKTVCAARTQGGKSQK
SMILES,activation at 1 µM [%],Activity (human GPR40 agonist activity) [%]
"COc1ccc(C(=O)N(CC(C)(C)C)c2nc(C)cc(C)n2)c(N2CCC(COc3cc(C(CC(=O)O)C4CC4)ccn3)CC2)c1 (stereo not shown) [Example 174, 3-cyclopropyl-3-(2-((1-(2-((2,2-dimethylpropyl)(4,6-dimethylpyrimidin-2-yl)carbamoyl)-5-methoxyphenyl)piperidin-4-yl)methoxy)pyridin-4-yl)propanoic acid]",104,–
"COc1ccc(C(=O)N(CC(C)(C)OC)c2cc(C)ccn2)c(N2CCC(COc3cc(C(CC(=O)O)C4CC4)ccn3)CC2)c1 (stereo not shown) [Example 164, 3-cyclopropyl-3-(2-((1-(5-methoxy-2-((2-methoxy-2-methylpropyl)(4-methylpyridin-2-yl)carbamoyl)phenyl)piperidin-4-yl)methoxy)pyridin-4-yl)propanoic acid]",88,–
"COc1ccc(C(=O)N(CC(C)C)c2cc(C#N)ccn2)c(N2CCC(COc3cc(C(CC(=O)O)C4CC4)ccn3)CC2)c1 (stereo not shown) [Example 158, 3-(2-((1-(2-((4-cyanopyridin-2-yl)(2-methylpropyl)carbamoyl)-5-methoxyphenyl)piperidin-4-yl)methoxy)pyridin-4-yl)-3-cyclopropylpropanoic acid]",96,–
"COc1ccc(C(=O)N(CC(C)(C)C)c2ccccn2)c(N2CCC(COc3cc(C(CC(=O)O)C4CC4)ccn3)CC2)c1 (stereo not shown) [Example 111, 3-cyclopropyl-3-(2-((1-(2-((2,2-dimethylpropyl)(pyridin-2-yl)carbamoyl)-5-methoxyphenyl)piperidin-4-yl)methoxy)pyridin-4-yl)propanoic acid]",100,–
"COc1ccc(C(=O)Nc2cccc(C)n2)c(N2CCC(COc3cc(C(CC(=O)O)C4CC4)ccn3)CC2)c1 (stereo not shown) [Example 241, 3-cyclopropyl-3-(2-((1-(5-methoxy-2-((6-methylpyridin-2-yl)-carbamoyl)phenyl)-piperidin-4-yl)methoxy)pyridin-4-yl)propanoic acid]",95,–
"COc1ccc(C(=O)NC2CCN(CC(F)(F)F)CC2)c(N2CCC(COc3cc(C(CC(=O)O)C4CC4)ccn3)CC2)c1 (stereo not shown) [Example 193, 3-cyclopropyl-3-(2-((1-(5-methoxy-2-((1-(2,2,2-trifluoroethyl)piperidin-4-yl)carbamoyl)phenyl)piperidin-4-yl)methoxy)pyridin-4-yl)propanoic acid]",39,–
"COc1ccc(C(=O)N(CC(C)C)c2ccc(C)cn2)c(N2CCC(COc3cc(C(CC(=O)O)C4CC4)ccn3)CC2)c1 (stereo not shown) [Example 115, 3-cyclopropyl-3-(2-((1-(5-methoxy-2-((2-methylpropyl)(5-methylpyridin-2-yl)carbamoyl)phenyl)piperidin-4-yl)methoxy)pyridin-4-yl)propanoic acid]",96,–
"Cc1cccc(N(CC(C)(C)C)C(=O)c2ccc(C(N)=O)cc2N2CCC(COc3cc(C(CC(=O)O)C4CC4)ccn3)CC2)n1 (stereo not shown) [Example 261, 3-(2-((1-(5-carbamoyl-2-((2,2-dimethylpropyl)(6-methylpyridin-2-yl)carbamoyl)phenyl)piperidin-4-yl)methoxy)pyridin-4-yl)-3-cyclopropylpropanoic acid]",11,–
"COc1ccc(C(=O)NCC(F)(F)C(F)(F)F)c(N2CCC(COc3cc(C(CC(=O)O)C4CC4)ccn3)CC2)c1 (stereo not shown) [Example 129, 3-cyclopropyl-3-(2-((1-(5-methoxy-2-((2,2,3,3,3-pentafluoropropyl)carbamoyl)phenyl)piperidin-4-yl)methoxy)pyridin-4-yl)propanoic acid]",81,–
"COc1ccc(C(=O)N(CC(C)(C)C)c2cncc(C)c2)c(N2CCC(COc3cc(C(CC(=O)O)C4CC4)ccn3)CC2)c1 (stereo not shown) [Example 231, 3-cyclopropyl-3-(2-((1-(2-((2,2-dimethylpropyl) (5-methylpyridin-3-yl)carbamoyl)-5-methoxyphenyl)piperidin-4-yl)methoxy)pyridin-4-yl)propanoic acid]",92,–
"COc1ccc(C(=O)N(c2ccccn2)C2CCN(Cc3ccccc3)CC2)c(N2CCC(COc3cc(C(CC(=O)O)C4CC4)ccn3)CC2)c1 (stereo not shown) [Example 190, 3-(2-((1-(2-((1-benzylpiperidin-4-yl)(pyridin-2-yl)carbamoyl)-5-methoxyphenyl)piperidin-4-yl)methoxy)pyridin-4-yl)-3-cyclopropylpropanoic acid]",–,66
"COc1ccc(C(=O)N(CC(F)(F)F)c2ccccn2)c(N2CCC(COc3cc(C(CC(=O)O)C4CC4)ccn3)CC2)c1 (stereo not shown) [Example 116, 3-cyclopropyl-3-(2-((1-(5-methoxy-2-(pyridin-2-yl(2,2,2-trifluoroethyl)carbamoyl)phenyl)piperidin-4-yl)methoxy)pyridin-4-yl)propanoic acid]",101,–
"COc1ccc(C(=O)N(CC2CC2)c2ccccn2)c(N2CCC(COc3cc(C(CC(=O)O)C4CC4)ccn3)CC2)c1 (single isomer, unassigned) [Example 141, 3-cyclopropyl-3-(2-((1-(2-((cyclopropylmethyl)(pyridin-2-yl)carbamoyl)-5-methoxyphenyl)piperidin-4-yl)methoxy)pyridin-4-yl)propanoic acid]",81,–
"COc1ccc(C(=O)N(CC2CC2)c2cccc(C)n2)c(N2CCC(COc3cc(C(CC(=O)O)C4CC4)ccn3)CC2)c1 (stereo not shown) [Example 124, 3-cyclopropyl-3-(2-((1-(2-((cyclopropylmethyl)(6-methylpyridin-2-yl)carbamoyl)-5-methoxyphenyl)piperidin-4-yl)methoxy)pyridin-4-yl)propanoic acid]",96,–
"CSc1ccc(C(=O)N(CC(C)(C)C)c2cccc(C)n2)c(N2CCC(COc3cc(C(CC(=O)O)C4CC4)ccn3)CC2)c1 (stereo not shown) [Example 262, 3-cyclopropyl-3-(2-((1-(2-((2,2-dimethylpropyl)(6-methylpyridin-2-yl)carbamoyl)-5-(methylsulfanyl)phenyl)piperidin-4-yl)methoxy)pyridin-4-yl)propanoic acid]",90,–
"COc1ccc(C(=O)N(CC(F)(F)F)c2cccc(C)n2)c(N2CCC(COc3cc(C(CC(=O)O)C4CC4)ccn3)CC2)c1 (stereo not shown) [Example 143, 3-cyclopropyl-3-(2-((1-(5-methoxy-2-((6-methylpyridin-2-yl)(2,2,2-trifluoroethyl)carbamoyl)phenyl)piperidin-4-yl)methoxy)pyridin-4-yl)propanoic acid]",102,–
"COc1ccc(C(=O)N(CC(F)(F)C(F)(F)F)c2ncccn2)c(N2CCC(COc3cc(C(CC(=O)O)C4CC4)ccn3)CC2)c1 (stereo not shown) [Example 170, 3-cyclopropyl-3-(2-((1-(5-methoxy-2-((2,2,3,3,3-pentafluoropropyl)(pyrimidin-2-yl)carbamoyl)phenyl)piperidin-4-yl)methoxy)pyridin-4-yl)propanoic acid]",104,–
"COc1ccc(C(=O)N(CC(C)(C)C)c2ccccn2)c(N2CCC(COc3cccc(C(CC(=O)O)C4CC4)c3)CC2)n1 (stereo not shown) [Example 254, 3-cyclopropyl-3-(3-((1-(3-((2,2-dimethylpropyl)(pyridin-2-yl)carbamoyl)-6-methoxypyridin-2-yl)piperidin-4-yl)methoxy)phenyl)propanoic acid]",74,–
"CCc1ccc(C(=O)N(CC(C)(C)C)c2ccccn2)c(N2CCC(COc3cccc(C(CC(=O)O)C4CC4)c3)CC2)n1 (stereo not shown) [Example 60, 3-cyclopropyl-3-(3-((1-(3-((2,2-dimethylpropyl)(pyridin-2-yl)carbamoyl)-6-ethylpyridin-2-yl)piperidin-4-yl)methoxy)phenyl)propanoic acid]",52,–
"COc1ncc(C(=O)N(CC(C)(C)C)c2cccc(C)n2)c(N2CCC(COc3cc(C(CC(=O)O)C4CC4)ccn3)CC2)n1 (stereo not shown) [Example 287, 3-cyclopropyl-3-(2-((1-(5-((2,2-dimethylpropyl) (6-methylpyridin-2-yl)carbamoyl)-2-methoxypyrimidin-4-yl)piperidin-4-yl)methoxy)pyridin-4-yl)propanoic acid]",82,–
"COc1cc(F)c(C(=O)N(CC(C)(C)C)c2cccc(C)n2)c(N2CCC(COc3cc(C(CC(=O)O)C4CC4)ccn3)CC2)c1 (stereo not shown) [Example 251, 3-cyclopropyl-3-(2-((1-(2-((2,2-dimethylpropyl)(6-methylpyridin-2-yl)carbamoyl)-3-fluoro-5-methoxyphenyl)piperidin-4-yl)methoxy)pyridin-4-yl)propanoic acid]",91,–
"COc1ccc(C(=O)N(CC(C)(C)C)c2cccc(C)n2)c(N2CCC(COc3cccc(C(CC(=O)O)C4CC4)c3F)CC2)c1 (stereo not shown) [Example 275, 3-cyclopropyl-3-(3-((1-(2-((2-dimethylpropyl)-(6-methylpyridin-2-yl)-carbamoyl)-5-methoxy-phenyl)piperidin-4-yl)methoxy)-2-fluoro-phenyl)propanoic acid]",99,–
